In the supplement of paper PMC10307832:

Key:
Assay in all cases: relative viability (nuclei count vs DMSO), 5 days (fraction); higher = more cells survive
[1] = compound: CC(O)(CS(=O)(=O)c1ccc(F)cc1)C(=O)Nc1ccc(C#N)c(C(F)(F)F)c1 [Bicalutamide] + O=C(CCCCCCC(=O)Nc1ccccc1)NO [Vorinostat] (partner 1 µM)
How it was run: (§1)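 Values are medians from duplicate plates. Each reflects relative viability, defined as the nuclei count of treated wells over that of vehicle wells. Lung cancer cell lines in 1536-well plates were pin-tool dosed one day after seeding with one drug alone or with a fixed anchor-drug dose plus five library-drug doses (not always all listed) in √10 steps, then fixed, stained and imaged at 4× after 5 days.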

[2] = compound: CC(O)(CS(=O)(=O)c1ccc(F)cc1)C(=O)Nc1ccc(C#N)c(C(F)(F)F)c1 [Bicalutamide] + CC(=O)c1c(C)c2cnc(Nc3ccc(N4CCNCC4)cn3)nc2n(C2CCCC2)c1=O [Palbociclib] (partner 0.5 µM)
How it was run: as §1

Bicalutamide + OSI-027 = compound: CC(O)(CS(=O)(=O)c1ccc(F)cc1)C(=O)Nc1ccc(C#N)c(C(F)(F)F)c1 [Bicalutamide] + COc1cccc2cc(-c3nc([C@H]4CC[C@H](C(=O)O)CC4)n4ncnc(N)c34)[nH]c12 [OSI-027] (partner 0.5 µM)
How it was run: as §1

[3] = compound: C(C(=O)C(=O)O)Br [Bromopyruvate] + O=C(CCCCCCC(=O)Nc1ccccc1)NO [Vorinostat] (partner 1 µM)
How it was run: as §1

UMC-11
relative viability ([1]; first compound 0.08 µM): 0.436 | relative viability ([1]; first compound 0.253 µM): 0.387 | relative viability ([1]; first compound 0.8 µM): 0.403 | relative viability ([1]; first compound 2.53 µM): 0.264 | relative viability ([2]; first compound 0.08 µM): 0.34 | relative viability ([2]; first compound 0.253 µM): 0.367 | relative viability ([2]; first compound 0.8 µM): 0.319 | relative viability ([2]; first compound 2.53 µM): 0.347 | relative viability (Bicalutamide + OSI-027; first compound 0.08 µM): 0.505 | relative viability (Bicalutamide + OSI-027; first compound 0.253 µM): 0.461 | relative viability (Bicalutamide + OSI-027; first compound 0.8 µM): 0.591 | relative viability (Bicalutamide + OSI-027; first compound 2.53 µM): 0.395 | relative viability ([3]; first compound 1 µM): 0.479 | relative viability ([3]; first compound 3.162 µM): 0.357 | relative viability ([3]; first compound 10 µM): 0.289 | relative viability ([3]; first compound 31.62 µM): 0.274 | relative viability ([3]; first compound 100 µM): 0.2
